Tests used:
[1] = Water solubility of FTY prodrugs; assay type: physicochemical; conditions: for water solubility: qualitative
Excerpt: Design and synthesis of FTY-k-PEG. Acetals (ketals) were chosen for their structural versatility, facile synthesis, and tunable cleavability under mildly acidic conditions. The endosomal pH of ˜5.0 is an excellent intracellular trigger for drug release from acid-labile drug conjugates. Initial synthetic methodology utilized 2-methoxypropene to generate methyl ketal-functionalized fingolimod (mkFTY) (see FIG. 2). […] To retain the ketal moiety while increasing solubility of the prodrug, N-Fmoc piperidone was used to generate a cyclic ketal in kFTY (7) (see FIG. 3), eliminating the hydrophobic methyl groups and incorporating a secondary amine as a functional handle for further conjugation. The ketal formation was achieved using azeotropic distillation by which constant removal of water efficiently drives the reaction to completion. […] To further increase water solubility, kFTY was conjugated to succinimidyl carboxyl methyl ester polyethylene glycol (SCM-PEG 5 k) prior to trifluoroacetamide (TFA)-deprotection to produce FTY-k-PEG (8). FTY-k-PEG was analyzed by MALDI-TOF to confirm PEGylation and TFA-deprotection (see FIG. 4). […] Other macromolecules may be used for conjugation, and a plethora of stimuli-responsive linkers may be explored to further enhance the specificity and safety of an FTY prodrug. The acid-cleavable ketal linkage can be replaced by other moieties responsive to intrinsic environmental stimuli (redox, pH, etc.), external stimuli (heat, ultrasound, photo-irradiation, electrochemical, magnetic, etc.), or specific biological processes (enzymatic cleavage, ion chelation, etc.), depending the molecular structure of a drug and the stimuli to be utilized for target indication. In addition, a variety of macromolecules can also be used in lieu of PEG, including polysaccharides (i.e., hyaluronic acids), peptides, and various synthetic polymers for improved water-solubility, extended circulation, avoided premature activation, nanoparticle formulation, theranostic applications, combating resistance, and specific targeting. […]

[2] = test system: nutrient transporter associated protein 4F2hc; test: Nutrient transporter expression (surface 4F2hc, flow cytometry); assay type: cell-based, murine; conditions: FL5.12 cells, 3 h treatment, compared to fingolimod
Protocol: Cell culture. Murine IL-3-dependent proB-cell lymphoid FL5.12 cells and FL5.12/BCR-Abl p190 cells were obtained by gift. FL5.12/p190 cells were transduced to express firefly luciferase by lentiviral vectors purchased from Capital Bioscience (Gaithersberg, Md.). FL5.12/p190 and luciferase-expressing FL5.12/p190 cells (FL5.12/p190/Luc cells) were maintained at 250,000-800,000 cells/mL in RPMI 1640 media containing 10% (v/v) FBS and 1% (v/v) streptomycin-penicillin. FL5.12 cells were cultured in the same media supplemented with 5 ng/mL IL3. All cells were cultured at 37° C. with 5% CO2 and 100% humidity.
Nutrient transporter expression. Surface 4F2hc expression was measured using phycoerythrin (PE)-conjugated rat anti-mouse 4F2hc antibody (BD Pharmingen, San Diego, Calif.); analysis by flow cytomery was restricted to viable cells. PE-conjugated mouse IgG1, k (BD Pharmingen) was used as an isotype control. Cells were analyzed on a BD LSR II flow cytometer (BD Biosciences, San Jose, Calif.) and with FlowJo software (Treestar, Ashland, Oreg.).
To confirm active drug was released selectively upon acid-hydrolysis, drugs were incubated in buffers of pH 7.4 and pH 5.0 prior to incubation with the cells (see FIG. 8). Fingolimod was pre-incubated in the same buffers to rule out the possibility that the buffers would affect drug's activity or contribute to cell apoptosis. […]

[3] = DNAge (epigenetic aging clock) analysis; assay type: in vivo; conditions: healthy BALB/c mice, 32 μmol/kg daily i.p., blood two days post-treatment
Protocol: DNAge® (epigenetic aging clock) analysis. Blood samples (100 μL) were collected in triplicate from healthy female BALB/c mice treated as described above. Upon immediate preservation in DNA/RNA Shield™ (Zymo Research, Irvine, Calif.), genomic DNA was purified using Quick-DNA Plus Kit (Zymo Research) as instructed by the manufacturer. Sample library preparation and data analysis for mouse DNAge® (epigenetics aging clock) were performed by service provider (Zymo Research). Briefly, genomic DNA (200 ng) was bisulfite-converted using EZ DNA Methylation_Lightning™ Kit (Zymo Research). Bisulfite-converted DNA libraries for targeted bisulfite sequencing platform, called SWARM® (Simplified Whole-panel Amplification Reaction Method), were sequenced on a HiSeq 1500 sequencer for >1,000× coverage. Sequence reads were identified using Illumina base calling software (San Diego, Calif.) and aligned to the reference genome using Bismark, an aligner optimized for bisulfite sequence data and methylation calling. The methylation level of each sampled cytosine was estimated as the number of reads reporting a C, divided by the total number of reads reporting a C or T. DNA methylation levels of >500 age-related CpG loci were used for age prediction using Zymo Research's proprietary […] DNAge® algorithms: […]

FL5.12/p190-Luc cells = test: In vivo bioluminescence imaging, BCR-Abl-driven leukemogenesis model; conditions: 32 μmol/kg daily i.p., day 6, Balb/c mice, p<0.01
Protocol: In vivo bioluminescence imaging. In an immunocompetent syngeneic model, 6-7 weeks old Balb/c female mice were intravenously injected with Ph+FL5.12/p190/Luc cells (1.0×10^5 cells per mouse) in the tail vein. After 5 days, the mice received daily i.p. injections of fingolimod, FTY-k-PEG, FTY-PEG (all at a dose of 32 μmol/kg) or PBS for 5 days (n=5). Mice were placed under anesthesia using isoflurane (Patterson Veterinary, Greeley, Colo.) and interperitoneally injected with 120 mg/kg of synthetic firefly luciferin (Promega, Madison, Wis.) in PBS at a concentration of 20 mg/mL immediately prior to bioluminescence imaging with an IVIS Lumina system (Caliper Life Sciences, Hopkinton, Mass.) for 4 min. Mice were under anesthesia for the entire duration of imaging and bioluminescence signal intensities in mice were quantified using Living Image 3.2 software associated with the imaging system.
Preserved anti-leukemic effect of FTY-k-PEG in vivo. To assess the anti-leukemic effects of FTY-k-PEG in vivo while eliminating bradycardia and immunosuppressive activity, a BCR-Abl-driven leukemogenesis model in which fingolimod is effectively was used. […] The leukemic expansion of FL5.12/p190-Luc cells was assessed by i.p. administration of synthetic firefly luciferin (120 mg/kg) and subsequent bioluminescence imaging (see FIG. 12B-D). […]

C57BL/6 mice = test: Heart rate (ECG telemetry); assay type: in vivo; conditions: single i.p. dose 10 mg/kg, monitored 10 h, conscious mice
Excerpt: Heart rate. Male C57BL/6 mice age 4-6 months were surgically implanted with DSI TA-ETAF20 electrocardiographic telemetry devices (Data Sciences International, St. Paul, Minn.) in the mouse's abdominal cavity with biopotential leads sutured in place in the chest wall. The electrocardiographic data was collected and recorded using the PhysioTel telemetry system and Dataquest A.R.T 4.0 software (Data Sciences International). Mice were permitted two week-long recovery after surgery before initiation of baseline telemetry recordings. Heart rate was calculated from ECG data taken in the freely moving, conscious mice. Mice (n=3) were intraperitoneally treated with a single dose of vehicle (0.9% saline or 20% acidified DMSO in 0.9% saline), 10 mg/kg fingolimod, or 155 mg/kg FTY-k-PEG, and heart rate was continuously monitored for 10 h. Mice were rested for two weeks at which point the experiment was repeated with the mice assigned to the alternate group. […]
Avoided bradycardia and lymphopenia in vivo by FTY-k-PEG. To test whether FTY-k-PEG avoids bradycardia, C57BL/6 mice were surgically implanted with an electrocardiographic telemetry device and heart rate was calculated from ECG data taken in the freely moving, conscious mice after intraperitoneal (i.p.) injection of saline, fingolimod, or acid-cleavable FTY-k-PEG (see FIG. 10A). […]

[4] = test system: circulating B and T lymphocytes; test: Lymphocyte sequestration; assay type: in vivo, mice; conditions: 10 mg/kg (32 μmol/kg) i.p., blood 12 h post-injection, compared to saline or FTY-k-PEG
Protocol: Lymphocyte sequestration. Female 8-24 week old C57BL6 mice were intraperitoneally injected with vehicle (0.9% saline or 20% acidified DMSO in 0.9% saline), 10 mg/kg (32 μmol/kg) fingolimod, or 155 mg/kg FTY-k-PEG (32 μmol/kg). After 12 h, blood was collected from the retro-orbital sinus under ketamine/xylazine anesthesia. Whole blood (10 μL) was added to 190 μL of ACK red blood cell lysis buffer, the mixture was incubated at ambient temperature for 3-5 min […], and the white blood cells were recovered by centrifugation. Nucleated cells (Hoechst33342-positive) were counted using a hemocytometer to obtain the white blood cell count. Separately, 50 μL of whole blood was added to 1 mL of ACK red blood cell lysis buffer and incubated for 3-5 min at RT. Cells were washed with 2% fetal calf serum (FCS, Atlanta Biologicals (Flowery Branch, Ga.) in PBS with 0.05% NaN3 (Sigma Aldrich (Milwaukee, Wis.)) and red blood cell lysis was repeated. Tubes were decanted and resuspended in 100 μL of 10% FCS in PBS with 0.05% NaN3 and directly conjugated antibodies against B220, CD4, or CD8 (all from Biolegend, San Diego, Calif.) for 30 min on ice. Cells were analyzed on a BD LSR II flow cytometer; the analysis was restricted to live cells (DAPI-negative).
Avoided bradycardia and lymphopenia in vivo by FTY-k-PEG. […]

epigenetic age [3]	reduction of lymphocytes [4] [%]	Structure (SMILES)	water solubility [1]	down-regulation of surface 4F2hc expression [2]	concentration up to which readily soluble in water [1] [µM]	average bioluminescence signal lower than that of PBS (FL5.12/p190-Luc cells) [%]	reduction of heart rate (C57BL/6 mice) [%]
–	–	CCCCCCCCc1ccc(CCC2(N)COC(C)(C)OC2)cc1 [mkFTY]	loss of water solubility	nearly identical efficacy to fingolimod	–	–	–
–	–	CCCCCCCCc1ccc(CCC2(N)COC3(CCNCC3)OC2)cc1 [kFTY]	increased water solubility compared to mkFTY	–	≤ 10000	–	–
significant increase in epigenetic age	~60	CCCCCCCCc1ccc(CCC(N)(CO)CO)cc1 [fingolimod, Fingolimod]	–	–	–	64	50
